Experimental data reported in patent EP3442964B1, “NOVEL N-[(PYRIMIDINYLAMINO)PROPANYL]-AND N [(PYRAZINYLAMINO)PROPANYL]ARYLCARBOXAMIDES” (Boehringer Ingelheim International GmbH, priority 2016, dated 2017).
Where two headings read alike, the source gives them in different places.

How the values were obtained:
[1] = target: T1, human orexin 2 receptor (Homo sapiens, UniProt O43614); type: cell-based
T1 sequence (O43614 1-444): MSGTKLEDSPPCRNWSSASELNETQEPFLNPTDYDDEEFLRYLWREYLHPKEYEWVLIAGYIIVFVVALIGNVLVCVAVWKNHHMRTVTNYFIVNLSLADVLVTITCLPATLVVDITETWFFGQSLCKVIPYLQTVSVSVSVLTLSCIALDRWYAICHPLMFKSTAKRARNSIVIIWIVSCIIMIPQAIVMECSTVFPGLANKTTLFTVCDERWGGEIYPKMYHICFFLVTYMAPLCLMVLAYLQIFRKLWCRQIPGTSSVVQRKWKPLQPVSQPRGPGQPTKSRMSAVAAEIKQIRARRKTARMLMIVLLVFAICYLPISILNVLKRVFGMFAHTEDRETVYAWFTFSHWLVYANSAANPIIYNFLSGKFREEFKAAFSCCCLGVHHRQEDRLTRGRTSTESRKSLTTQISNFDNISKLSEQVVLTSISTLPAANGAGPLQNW
Description: Chem. Genomics 2009, 3, 22-32.

[2] = Assay C: metabolic stability in human liver microsomes (human MST); type: in vitro ADME; conditions: pooled human liver microsomes, pH 7.6, 1 µM test compound, 37°C
Description: Stability in human liver microsomes refers to the susceptibility of compounds to biotransformation in the context of selecting and/or designing drugs with favorable pharmacokinetic properties. The primary site of metabolism for many drugs is the liver. Human liver microsomes contain the cytochrome P450s (CYPs), and thus represent a model system for studying drug metabolization in vitro. Enhanced stability in human liver microsomes is associated with several advantages, including increased bioavailability and longer half-life, which can enable lower and less frequent dosing of patients. Thus, enhanced stability in human liver microsomes is a favorable characteristic for compounds that are to be used for drugs.
The metabolic stability of the compounds according to the invention may be investigated as follows: The metabolic degradation of the test compound is assayed at 37°C with pooled human liver microsomes. The final incubation volume of 100 µL per time point contains TRIS buffer pH 7.6 at room temperature (0.1 M), MgCl2 (5 mM), microsomal protein (1 mg/mL) and the test compound at a final concentration of 1 µM. Following a short pre-incubation period at 37°C , the reactions are initiated by addition of beta-nicotinamide adenine dinucleotide phosphate, reduced form (NADPH, 1 mM), and terminated by transferring an aliquot into solvent after different time points. After centrifugation (10000 g, 5 min), an aliquot of the supernatant is assayed by LC-MS/MS for the amount of parent compound. The half-life (t1/2) is determined by the slope of the semi-logarithmic plot of the concentration-time profile.

[3] = target: T2, human MDR1 P-gp (Homo sapiens, UniProt P08183); assay: Assay D: efflux in MDCK cells transfected with the human MDR1 gene; type: in vitro ADME; conditions: MDCK-MDR1 monolayers, pH 7.4, 37°C
T2 construct: expressed in transfected cells; host or cells: MDCK (MDCK-MDR1)
Procedure: The MDCK assay provides information on the potential of a compound to pass the blood brain barrier. Permeability measurements across polarized, confluent MDCK-MDR1 cell monolayers grown on permeable filter supports are used as an in vitro absorption model: apparent permeability coefficients (PE) of the compounds across the MDCK-MDR1 cell monolayers are measured (pH 7.4, 37°C) in apical-to-basal (AB) and basal-to-apical (BA) transport direction. The AB permeability (PEAB) represents drug absorption from the blood into the brain and the BA permeability (PEBA) drug efflux from the brain back into the blood via both, passive permeability as well as active transport mechanisms mediated by efflux and uptake transporters that are expressed on the MDCK-MDR1 cells, predominantly by the overexpressed human MDR1 P-gp. Identical or similar permeabilities in both transport directions indicate passive permeation, vectorial permeability points to additional active transport mechanisms. Higher PEBA than PEAB (PEBA/PEAB > 5) indicates the involvement of active efflux mediated by MDR1 P-gp, which might compromises the goal to achieve sufficient brain exposure. Therefore this assay provides valuable support for selection of compounds applicable for further in vivo testing. High permeability not limited by efflux at the blood brain barrier is a favourable characteristic for compounds that are to be used for drugs acting primarily in the CNS
Apparent permeability coefficients (PE) of the compounds across the MDCK-MDR1 cell monolayers are measured (pH 7.4, 37°C) in apical-to-basal (AB) and basal-to-apical (BA) transport direction. AB permeability (PEAB) represents drug absorption from the blood into the brain and BA permeability (PEBA) drug efflux from the brain back into the blood via both passive permeability as well as active transport mechanisms mediated by efflux and uptake transporters that are expressed on the MDCK-MDR1 cells, predominantly by the overexpressed human MDR1 P-gp. The compounds are assigned to permeability/absorption classes by comparison of the AB permeabilities with the AB permeabilities of reference compounds with known in vitro permeability and oral absorption in the human. Identical or similar permeabilities in both transport directions indicate passive permeation, vectorial permeability points to additional active transport mechanisms. Higher PEBA than PEAB indicates the involvement of active efflux mediated by MDR1 P-gp. Active transport is concentration- dependently saturable.
MDCK-MDR1 cells (1-2 x 10e5 cells/1 cm2 area) are seeded on filter inserts (Costar transwell polycarbonate or PET filters, 0.4 µm pore size) and cultured (DMEM) for 7 days. Subsequently, the MDR1 expression is boosted by culturing the cells with 5 mM sodium butyrate in full medium for 2 days. Compounds are dissolved in appropriate solvent (like DMSO, 1 -20 mM stock solutions). Stock solutions are diluted with HTP-4 buffer (128.13 mM NaCl, 5.36 mM KCI, 1 mM MgSO4, 1.8 mM CaCl2, 4.17 mM NaHCO3, 1.19 mM Na2HPO4 x 7H2O, 0.41 mM NaH2PO4xH2O, 15 mM HEPES, 20 mM glucose, 0.25 % BSA, pH 7.4) to prepare the transport solutions (0.1 - 300 µM compound, final DMSO <= 0.5 %). The transport solution (TL) is applied to the apical or basolateral donor side for measuring A-B or B-A permeability (3 filter replicates), respectively. The receiver side contains the same buffer as the donor side. Samples are collected at the start and end of experiment from the donor and at various time intervals for up to 2 hours also from the receiver side for concentration measurement by HPLC-MS/MS or scintillation counting. Sampled receiver volumes are replaced with fresh receiver solution.

[4] = read-out: Assay C: Human MST t1/2
[5] = read-out: Assay D:MDCK efflux ratio (BA/AB)
[6] = read-out: Data as determined in Assay C: Human MST t1/2

T2 sequence (P08183 whole entry): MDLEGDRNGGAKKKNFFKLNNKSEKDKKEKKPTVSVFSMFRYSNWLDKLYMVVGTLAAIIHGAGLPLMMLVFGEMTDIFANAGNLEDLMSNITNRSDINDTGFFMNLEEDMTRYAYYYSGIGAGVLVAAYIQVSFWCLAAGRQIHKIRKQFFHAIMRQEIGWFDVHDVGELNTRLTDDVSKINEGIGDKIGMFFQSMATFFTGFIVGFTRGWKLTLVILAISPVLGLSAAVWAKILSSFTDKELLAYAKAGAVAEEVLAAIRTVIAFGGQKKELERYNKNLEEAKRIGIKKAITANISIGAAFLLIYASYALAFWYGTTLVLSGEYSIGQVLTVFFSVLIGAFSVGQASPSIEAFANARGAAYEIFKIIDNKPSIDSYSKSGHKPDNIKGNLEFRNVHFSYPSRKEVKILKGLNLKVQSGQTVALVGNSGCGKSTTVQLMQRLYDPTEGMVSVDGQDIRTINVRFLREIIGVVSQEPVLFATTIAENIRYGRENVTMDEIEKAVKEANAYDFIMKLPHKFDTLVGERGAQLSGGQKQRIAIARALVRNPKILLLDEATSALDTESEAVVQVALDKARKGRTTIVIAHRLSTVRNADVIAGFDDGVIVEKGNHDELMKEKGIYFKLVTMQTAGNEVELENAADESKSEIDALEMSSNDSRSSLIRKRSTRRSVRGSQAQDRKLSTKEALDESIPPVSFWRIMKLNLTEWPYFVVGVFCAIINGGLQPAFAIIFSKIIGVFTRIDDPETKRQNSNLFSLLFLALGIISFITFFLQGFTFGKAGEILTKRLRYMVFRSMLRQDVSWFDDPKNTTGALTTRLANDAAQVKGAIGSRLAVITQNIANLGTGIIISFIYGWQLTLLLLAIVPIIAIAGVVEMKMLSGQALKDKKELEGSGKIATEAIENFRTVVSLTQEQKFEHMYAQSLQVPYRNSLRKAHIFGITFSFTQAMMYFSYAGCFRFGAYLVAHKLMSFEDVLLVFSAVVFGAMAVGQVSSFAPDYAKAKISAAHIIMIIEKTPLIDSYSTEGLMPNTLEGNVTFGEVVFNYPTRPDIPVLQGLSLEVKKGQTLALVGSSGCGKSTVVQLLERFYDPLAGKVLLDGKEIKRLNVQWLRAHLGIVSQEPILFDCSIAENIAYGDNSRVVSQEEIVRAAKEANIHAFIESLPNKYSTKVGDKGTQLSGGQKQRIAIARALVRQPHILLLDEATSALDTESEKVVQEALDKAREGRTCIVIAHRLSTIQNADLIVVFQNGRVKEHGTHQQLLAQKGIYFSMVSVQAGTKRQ

Row | SMILES | Kb ([1]; 0.5 nM Orexin A) | half-life at 1 µM [2, 4] | efflux ratio [3, 5] | Kb ([1]; 0.5 nM Orexin A concentration, read-out: Assay B: OX2R Kb) | efflux ratio ([3]; read-out: Assay D: MDCK efflux ratio (BA/AB)) | half-life at 1 µM [2, 6]
1 | CCN(C(=O)c1ccc(F)cc1-n1nccn1)[C@@H](C)CNc1ncc(C(F)(F)F)cn1 [Example 2] | 64.5 nM | 0.717 h | < 3 |  |  | 
2 | CCN(C(=O)c1ccc(F)c(F)c1-n1nccn1)[C@@H](C)CNc1ncc(C(F)(F)F)cn1 [Example 4] | 46.9 nM | 1.58 h | < 3 |  |  | 
3 | CCN(C(=O)c1cc(F)ccc1-n1nccn1)[C@@H](C)CNc1ncc(C(F)(F)F)cn1 [Example 5] | 35.3 nM | 2 h | < 3 |  |  | 
4 | Cc1nc(C(=O)N(C)CCNc2ncc(Br)cn2)c(-c2ccc(F)cc2)s1 [Example 6 in WO03/051872, reference compound] |  | 0.133 h |  | 101 nM | 0.8 | 
5 | CCN(C(=O)c1c(F)cccc1-n1nccn1)[C@@H](C)CNc1ncc(C(F)(F)F)cn1 [Example 7] | 33.4 nM | 1.27 h | < 3 |  |  | 
6 | CCN(C(=O)c1cc(C#N)ccc1-n1nccn1)[C@@H](C)CNc1ncc(C(F)(F)F)cn1 [Example 8] | 33.4 nM | > 2 h | 3 to 5 |  |  | 
7 | CCN(C(=O)c1cc(F)cnc1-n1nccn1)[C@@H](C)CNc1ncc(C(F)(F)F)cn1 [Example 10] | 1060 nM | > 2 h | < 3 |  |  | 
8 | CCN(C(=O)c1cccc(F)c1-c1ncccn1)[C@@H](C)CNc1ncc(C(F)(F)F)cn1 [Example 11] | 19.3 nM | > 2 h | 3 to 5 |  |  | 
9 | CCN(C(=O)c1nc(C)ccc1-n1cccn1)[C@@H](C)CNc1ncc(C(F)(F)F)cn1 [Example 12] | 129 nM | 1.08 h | < 3 |  |  | 
10 | CCN(C(=O)c1c(F)cccc1-c1ncccn1)[C@@H](C)CNc1ncc(C(F)(F)F)cn1 [Example 13] | 62 nM | > 2 h | < 3 |  |  | 
11 | C[C@@H](CNc1ccc(Cl)cn1)N(C)C(=O)c1ccccc1-c1ccccc1 [Example 14 in WO2016/034882, reference compound] |  | 0.0333 h |  |  |  | 
12 | CCN(C(=O)c1ccccc1-c1noc(C)n1)[C@@H](C)CNc1ncc(C(F)(F)F)cn1 [Example 14] | 44 nM | 1.52 h | < 3 |  |  | 
13 | CCN(C(=O)c1cc(F)ccc1-c1ncccn1)[C@@H](C)CNc1ncc(C(F)(F)F)cn1 [Example 15] | 22.9 nM | > 2 h | < 3 |  |  | 
14 | CCN(C(=O)c1ccc(F)cc1-c1ncccn1)[C@@H](C)CNc1ncc(C(F)(F)F)cn1 [Example 16] | 76.8 nM | 1.67 h | < 3 |  |  | 
15 | CCN(C(=O)c1ncccc1-c1ccccc1)[C@@H](C)CNc1ncc(C(F)(F)F)cn1 [Example 19] | 12.5 nM | > 2 h | < 3 |  |  | 
16 | CCN(C(=O)c1cncnc1-c1ccccc1)[C@@H](C)CNc1ncc(C(F)(F)F)cn1 [Example 20] | 68 nM | 0.717 to 1.67 h | < 3 |  |  | 
17 | CCN(C(=O)c1nccnc1-c1ccccc1)[C@@H](C)CNc1ncc(C(F)(F)F)cn1 [Example 21] | 55.9 nM | > 2 h | < 3 |  |  | 
18 | CCN(C(=O)c1ccccc1-n1nccn1)[C@@H](C)CNc1cnc(C(F)(F)F)cn1 [Example 22] | 7.37 nM | > 2 h | 3 to 5 |  |  | 
19 | CCN(C(=O)c1ccc(F)cc1-c1nnc(C)o1)[C@@H](C)CNc1cnc(C(F)(F)F)cn1 [Example 23] | 222 nM | > 2 h | 3 to 5 |  |  | 
20 | CCN(C(=O)c1nc(C)ccc1-c1ncccn1)[C@@H](C)Cn1nnc(-c2ccc(F)cc2)n1 [Example 69 in WO2013/187466, reference compound] |  |  |  |  |  | 0.383 h
21 | CCN(C(=O)c1cc(F)ccc1-c1ncccn1)[C@@H](C)Cn1nnc(-c2ccc(F)cc2)n1 [Example 70 in WO2013/187466, reference compound] |  |  |  |  |  | 0.267 h
